Test results: patent publication US10894807B2 (Siemens Medical Solutions USA, Inc., priority 2011, dated 2021)

Target: human PSMA (Homo sapiens (Human), UniProt Q04609)
Experiment: Enzymatic assay for in vitro evaluation of PSMA inhibitors (fluorescent assay of PSMA activity, NAAG substrate, OPA detection of glutamate)
Format: biochemical

Chain of human PSMA (Q04609 whole entry): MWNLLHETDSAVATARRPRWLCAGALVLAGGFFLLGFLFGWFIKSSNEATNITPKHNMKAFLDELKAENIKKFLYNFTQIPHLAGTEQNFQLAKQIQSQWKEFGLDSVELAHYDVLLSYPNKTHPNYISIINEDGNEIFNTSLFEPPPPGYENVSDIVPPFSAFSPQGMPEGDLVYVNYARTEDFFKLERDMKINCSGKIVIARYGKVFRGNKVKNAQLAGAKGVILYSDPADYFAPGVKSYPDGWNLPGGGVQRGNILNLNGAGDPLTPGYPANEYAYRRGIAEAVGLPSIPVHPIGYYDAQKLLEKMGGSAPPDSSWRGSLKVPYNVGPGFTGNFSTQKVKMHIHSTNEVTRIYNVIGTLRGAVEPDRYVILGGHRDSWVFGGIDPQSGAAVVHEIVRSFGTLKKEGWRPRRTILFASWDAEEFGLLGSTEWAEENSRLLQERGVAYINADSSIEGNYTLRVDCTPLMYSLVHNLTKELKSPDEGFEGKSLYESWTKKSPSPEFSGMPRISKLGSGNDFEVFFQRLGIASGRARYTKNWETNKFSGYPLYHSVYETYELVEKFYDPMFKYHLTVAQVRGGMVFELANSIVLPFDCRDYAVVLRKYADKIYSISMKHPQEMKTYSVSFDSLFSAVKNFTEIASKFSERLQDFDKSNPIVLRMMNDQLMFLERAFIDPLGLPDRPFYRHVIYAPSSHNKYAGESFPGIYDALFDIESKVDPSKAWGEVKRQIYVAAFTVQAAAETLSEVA

| Compound | Ki [nM] | PSMA Blkg % (10 μM) [%] | PSMA Blkg % (1.0 μM) [%] |
| --- | --- | --- | --- |
| O=C(O)CC[C@H](NC(=O)N[C@@H](CCCCNC(=S)Nc1ccc(-n2cc(CCCF)nn2)cc1)C(=O)O)C(=O)O [P200, (S)-2-(3-((S)-1-Carboxy-5-(3-(4-(4-(3-fluoropropyl)-1H-1,2,3-triazol-1-yl)phenyl)thioureido)pentyl)-ureido)pentanedioic Acid] | < 0.3 | 95 | – |
| CC(C)(C)OC(=O)N1CCC[C@H]1COP(=O)(O)CC(CCC(=O)O)C(=O)O (stereo partly drawn) [P201, 2-(((((S)-1-(tert-butoxycarbonyl)pyrrolidin-2-yl)methoxy)(hydroxy)phosphoryl)methyl)-pentanedioic Acid] | > 300 | 83 | – |
| O=C(O)CC[C@H](NC(=O)NC(Cc1ccc(OCCn2cc(CCCF)nn2)cc1)C(=O)O)C(=O)O (stereo partly drawn) [P202, (2S)-2-(3-(1-Carboxy-2-(4-(2-(4-(3-fluoropropyl)-1H-1,2,3-triazol-1-yl)ethoxy)phenyl)ethyl)ureido)pentanedioic Acid] | 94 | 97 | – |
| O=C(O)CC[C@H](NC(=O)N[C@@H](Cc1ccc(OCCOCCOCCn2cc(CCCF)nn2)cc1)C(=O)O)C(=O)O [P203, (S)-2-(3-((S)-1-Carboxy-2-(4-(2-(2-(2-(4-(3-fluoropropyl)-1H-1,2,3-triazol-1-yl)ethoxy)ethoxy)ethoxy)phenyl)ethyl)ureido)pentanedioic Acid] | 41 | 97 | – |
| O=C(O)CC[C@H](NC(=O)N[C@@H](COCc1ccccc1)C(=O)O)C(=O)O [P204, (S)-2-(3-((S)-2-(Benzyloxy)-1-carboxyethyl)ureido)pentanedioic Acid] | 6.9 | 98 | – |
| O=C(O)CCC(CP(=O)(O)OC[C@@H]1CCCN1C(=O)Cc1ccccc1)C(=O)O (stereo partly drawn) [P205, 2-((Hydroxy(((S)-1-(2-phenylacetyl)pyrrolidin-2-yl)methoxy)phosphoryl)methyl)pentanedioic Acid] | – | 79 | – |
| O=C(O)CCC(CP(=O)(O)OC[C@@H]1CCCN1C(=O)CCc1ccc(-n2cc(CCCF)nn2)cc1)C(=O)O (stereo partly drawn) [P206, 2-(((((S)-1-(3-(4-(4-(3-Fluoropropyl)-1H-1,2,3-triazol-1-yl)phenyl)propanoyl)pyrrolidin-2-yl)methoxy)(hydroxy)phosphoryl)methyl)pentanedioic Acid] | – | 81 | – |
| O=C(O)CCC(CP(=O)(O)OC[C@@H]1CCCN1C(=O)CCCc1ccc(-n2cc(CCCF)nn2)cc1)C(=O)O (stereo partly drawn) [P207, 2-(((((S)-1-(4-(4-(4-(3-Fluoropropyl)-1H-1,2,3-triazol-1-yl)phenyl)butanoyl)pyrrolidin-2-yl)methoxy)(hydroxy)phosphoryl)methyl)pentanedioic Acid] | 18.8 | 96 | – |
| O=C(O)CC[C@H](NC(=O)C[C@@H](NC(=O)CCCNC(=O)OCc1ccccc1)C(=O)O)C(=O)O [P208, (10R,14S)-3,8,12-Trioxo-1-phenyl-2-oxa-4,9,13-triazahexadecane-10,14,16-tricarboxylic Acid] | – | 75 | – |
| O=C(O)CC[C@H](NC(=O)C[C@@H](NC(=O)CCCCCNC(=O)OCc1ccccc1)C(=O)O)C(=O)O [P209, (12R,16S)-3,10,14-Trioxo-1-phenyl-2-oxa-4,11,15-triazaoctadecane-12,16,18-tricarboxylic Acid] | – | 44 | – |
| O=C(O)CC[C@H](NC(=O)C[C@@H](NC(=O)Cc1ccc(F)cc1)C(=O)O)C(=O)O [P210, (S)-2-((R)-3-Carboxy-3-(2-(4-fluorophenyl)acetamido)propanamido)pentanedioic Acid] | – | 16 | – |
| O=C(O)CC[C@H](NC(=O)C[C@@H](NC(=O)CCCc1ccc(F)cc1)C(=O)O)C(=O)O [P211, (S)-2-((R)-3-Carboxy-3-(4-(4-fluorophenyl)butanamido)propanamido)pentanedioic Acid] | – | 43 | – |
| O=C(O)CC[C@H](NC(=O)N[C@@H](Cc1ccc(NC(=O)Nc2ccc(-n3cc(CCCF)nn3)cc2)cc1)C(=O)O)C(=O)O [P212, (S)-2-(3-((S)-1-Carboxy-2-(4-(3-(4-(4-(3-fluoropropyl)-1H-1,2,3-triazol-1-yl)phenyl)ureido)phenyl)ethyl)ureido)pentanedioic Acid] | 3.1 | 99 | – |
| O=C(O)CC[C@H](NC(=O)C[C@@H](NC(=O)c1ccc(F)nc1)C(=O)O)C(=O)O [P213, (S)-2-((R)-3-Carboxy-3-(6-fluoronicotinamido)propanamido)pentanedioic Acid] | – | 33 | – |
| O=C(O)CC[C@H](NC(=O)C[C@@H](NC(=O)NCCc1ccccc1)C(=O)O)C(=O)O [P214, (S)-2-((R)-3-Carboxy-3-(3-phenethylureido)propanamido)pentanedioic Acid] | – | 34 | – |
| O=C(O)CC[C@H](NC(=O)N[C@@H](Cc1ccc(NC(=O)c2ccc(-n3cc(CCCF)nn3)cc2)cc1)C(=O)O)C(=O)O [P215, (S)-2-(3-((S)-1-Carboxy-2-(4-(4-(4-(3-fluoropropyl)-1H-1,2,3-triazol-1-yl)-benzamido)-phenyl)ethyl)ureido)pentanedioic Acid] | 2.2 | 99 | – |

| Compound | Ki [nM] | PSMA Blkg % (10 μM) [%] | PSMA Blkg % (1.0 μM) [%] |
| --- | --- | --- | --- |
| O=C(O)CC[C@H](NC(=O)N[C@@H](Cc1ccc(NC(=O)COCCOCCOCCn2cc(CCCF)nn2)cc1)C(=O)O)C(=O)O [P216] | 21.9 | 98 | – |
| O=C(O)CC[C@H](NC(=O)N[C@@H](Cc1ccc(NC(=O)Cn2cc(CCCF)nn2)cc1)C(=O)O)C(=O)O [P217, (S)-2-(3-((S)-1-Carboxy-2-(4-(4-(4-(3-fluoropropyl)-1H-1,2,3-triazol-1-yl)-acetamido)-phenyl)ethyl)ureido)pentanedioic Acid] | 31.3 | 96 | – |
| O=C(O)CC[C@H](NC(=O)N[C@@H](CCCCNc1nc(-c2ccc(-n3cc(CCCF)nn3)cc2)cs1)C(=O)O)C(=O)O [P218, (S)-2-(3-((S)-1-Carboxy-5-((4-(4-(4-(3-fluoropropyl)-1H-1,2,3-triazol-1-yl)phenyl)thiazol-2-yl)amino)pentyl)ureido)pentanedioic Acid] | 0.6 | 98 | – |
| O=C(O)CC[C@H](NC(=O)C[C@@H](NC(=O)CCCc1ccc(-n2cc(CCCF)nn2)cc1)C(=O)O)C(=O)O [P219, (S)-2-((R)-3-Carboxy-3-(4-(4-(4-(3-fluoropropyl)-1H-1,2,3-triazol-1-yl)phenyl)butanamido)-propanamido)pentanedioic Acid] | – | 74 | – |
| O=C(O)CC[C@H](NC(=O)C[C@@H](NC(=O)CCc1ccc(-n2cc(CCCF)nn2)cc1)C(=O)O)C(=O)O [P220, (S)-2-((R)-3-Carboxy-3-(3-(4-(4-(3-fluoropropyl)-1H-1,2,3-triazol-1-yl)phenyl)-propanamido)-propanamido)pentanedioic Acid] | – | – | 34 |
| O=C(O)CC[C@H](NC(=O)C[C@@H](NC(=O)c1ccc(-n2cc(CCCF)nn2)cc1)C(=O)O)C(=O)O [P221, (S)-2-((R)-3-Carboxy-3-(4-(4-(3-fluoropropyl)-1H-1,2,3-triazol-1-yl)benzamido)propanamido)-pentanedioic Acid] | – | – | 15 |
| O=C(O)CC[C@H](NC(=O)N[C@@H](Cc1ccc(NC(=O)N2CCN(C(=O)OCc3ccccc3)CC2)cc1)C(=O)O)C(=O)O [P222] | 0.56 | – | 98 |
| O=C(O)CC[C@H](NC(=O)N[C@@H](Cc1ccc(NC(=O)Nc2ccc(C[C@H](NC(=O)N[C@@H](CCC(=O)O)C(=O)O)C(=O)O)cc2)cc1)C(=O)O)C(=O)O [P223, (2S,2′S)-2,2′-(((((1S,1′S)-((Carbonylbis(azanediyl))bis(4,1-phenylene))bis(1-carboxyethane-2,1-diyl))bis(azanediyl))bis(carbonyl))bis(azanediyl))dipentanedioic Acid] | 1.1 | – | 98 |
| O=C(O)CC[C@H](NC(=O)N[C@@H](COC(=O)N1CCN(C(=O)OCc2ccccc2)CC1)C(=O)O)C(=O)O [P224, (S)-2-(3-((S)-2-((4-((Benzyloxy)carbonyl)piperazine-1-carbonyl)oxy)-1-carboxyethyl)ureido)pentanedioic Acid] | – | – | 65 |
| O=C(O)CCC(CP(=O)(O)OCCC1CCN(C(=O)CCc2ccc(-n3cc(CCCF)nn3)cc2)CC1)C(=O)O (stereo not shown) [P225, 2-(((2-(1-(3-(4-(4-(3-Fluoropropyl)-1H-1,2,3-triazol-1-yl)phenyl)propanoyl)piperidin-4-yl)ethoxy)(hydroxy)phosphoryl)methyl)pentanedioic Acid] | – | – | 7 |
| O=C(O)CCC(CP(=O)(O)OCC1CCN(C(=O)CCCc2ccc(-n3cc(CCCF)nn3)cc2)CC1)C(=O)O (stereo not shown) [P226, 2-((((1-(4-(4-(4-(3-Fluoropropyl)-1H-1,2,3-triazol-1-yl)phenyl)butanoyl)piperidin-4-yl)methoxy)(hydroxy)phosphoryl)methyl)pentanedioic Acid] | – | – | 32 |
| O=C(O)CCC(CP(=O)(O)OCCC1CCN(C(=O)c2ccc(-n3cc(CCCF)nn3)cc2)CC1)C(=O)O (stereo not shown) [P227, 2-(((2-(1-(4-(4-(3-Fluoropropyl)-1H-1,2,3-triazol-1-yl)benzoyl)piperidin-4-yl)ethoxy)(hydroxy)phosphoryl)methyl)pentanedioic Acid] | – | – | 15 |
| O=C(O)CC[C@H](NC(=O)C[C@@H](NC(=O)Cn1cc(CCCF)nn1)C(=O)O)C(=O)O [P228, (S)-2-((R)-3-Carboxy-3-(2-(4-(3-fluoropropyl)-1H-1,2,3-triazol-1-yl)acetamido)propanamido)-pentanedioic Acid] | – | – | 24 |
| O=C(O)CC[C@H](NC(=O)C[C@@H](NC(=O)N1CCN(C(=O)OCc2ccccc2)CC1)C(=O)O)C(=O)O [P229, (S)-2-((R)-3-(4-((Benzyloxy)carbonyl)piperazine-1-carboxamido)-3-carboxypropanamido)-pentanedioic Acid] | – | – | 25 |
| O=C(O)CC[C@H](NC(=O)NC(CC1CCN(C(=O)CCCc2ccc(-n3cc(CCCF)nn3)cc2)CC1)C(=O)O)C(=O)O (stereo partly drawn) [P230, (2S)-2-(3-(1-Carboxy-2-(1-(4-(4-(4-(3-fluoropropyl)-1H-1,2,3-triazol-1-yl)phenyl)butanoyl)-piperidin-4-yl)ethyl)ureido)pentanedioic Acid] | 13 | – | 95 |
| O=C(O)CCC(C(=O)O)N1C(=O)N[C@@H](CC2CCN(C(=O)CCCc3ccc(-n4cc(CCCF)nn4)cc3)CC2)C1=O (stereo partly shown) [P231] | – | – | 63 |
